# Experimental data: ChEMBL document CHEMBL5375949, “The evolution of small molecule enzyme activators” (RSC Med Chem, 2023)
# What was measured:
# [1] = biological target: N-glycosylase/DNA lyase (Homo sapiens, UniProt O15527); assay: Activation of OGG1 (unknown origin) by fluorescence-based assay
# [2] = test system: A549; assay: Anti-oxidative activity in human A549 cells assessed as reduction in cell injury relative to control; type: functional; design: scale not given: the % may be the effect or the level left
# [3] = species on record: Homo sapiens; assay: Activation of recombinant sGC (unknown origin) assessed as fold increase
# [4] = biological target: Angiotensin-converting enzyme 2 (Homo sapiens, UniProt Q9BYF1); assay: Activation of recombinant human ACE2 using McaAPK(Dnp)-OH as substrate preincubated for 15 mins followed by substrate addition spectra max Gemini M5 fluorescence plate reader analysis
# [5] = Activation of sGC (unknown origin); design: species or system Homo sapiens
# [6] = biological target: T1, Carnitine O-palmitoyltransferase 1, liver isoform (Homo sapiens) (UniProt P50416); assay: Activation of CPT-1 in human HeLa cells assessed as fold increase at 100 uM incubated for 10 mins relative to control; type: cell-based; conditions: filed as activator
# T1 sequence (whole entry): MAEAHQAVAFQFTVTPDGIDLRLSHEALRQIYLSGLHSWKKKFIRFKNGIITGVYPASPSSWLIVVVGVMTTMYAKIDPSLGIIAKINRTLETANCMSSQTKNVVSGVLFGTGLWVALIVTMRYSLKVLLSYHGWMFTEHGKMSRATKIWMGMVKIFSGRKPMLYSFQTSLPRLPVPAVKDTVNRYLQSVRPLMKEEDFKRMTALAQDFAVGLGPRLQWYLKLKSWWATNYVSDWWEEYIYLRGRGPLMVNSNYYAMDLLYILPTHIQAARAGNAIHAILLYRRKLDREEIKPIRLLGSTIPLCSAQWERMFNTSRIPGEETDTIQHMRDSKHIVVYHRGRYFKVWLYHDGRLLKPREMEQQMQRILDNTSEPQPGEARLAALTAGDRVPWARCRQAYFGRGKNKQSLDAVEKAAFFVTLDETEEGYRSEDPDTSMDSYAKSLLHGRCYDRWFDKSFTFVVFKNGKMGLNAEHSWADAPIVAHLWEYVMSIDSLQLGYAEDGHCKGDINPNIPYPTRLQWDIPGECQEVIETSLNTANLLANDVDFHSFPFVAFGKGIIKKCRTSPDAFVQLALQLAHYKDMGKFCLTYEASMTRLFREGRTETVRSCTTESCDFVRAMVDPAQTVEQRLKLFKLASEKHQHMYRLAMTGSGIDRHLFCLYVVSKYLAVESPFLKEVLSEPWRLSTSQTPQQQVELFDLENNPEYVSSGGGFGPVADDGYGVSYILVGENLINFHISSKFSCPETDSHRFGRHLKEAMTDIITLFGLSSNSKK
# [7] = biological target: T1, Carnitine O-palmitoyltransferase 1, liver isoform (Homo sapiens); assay: Activation of CPT-1 in human HeLa cells assessed as reduction in free fatty acid at 100 uM incubated for 10 mins relative to control; type: cell-based; design: scale not given: the % may be the effect or the level left; conditions: filed as activator
# [8] = test system: Mus musculus; assay: Anti-obesity activity against diet-induced obese mouse expressing CPT-1 H327E mutant assessed as reduction in body weight at 400 mg/kg, IG administered for 12 week; type: functional; conditions: time 12 weeks
# [9] = test system: Mus musculus; assay: Anti-obesity activity against diet-induced obese mouse expressing CPT-1 H327E mutant assessed as reduction in body fat percentage at 400 mg/kg, IG administered for 12 week relative to control; type: functional; design: scale not given: the % may be the effect or the level left; conditions: time 12 weeks
# [10] = test system: SUM-159-PT; assay: cells; conditions: Homo sapiens, 72 h
# Description: Antiproliferative activity against human SUM159 cells assessed as inhibition of cell growth incubated for 72 hrs by Hoechst stain-based assay
# [11] = test system: MDA-MB-231; assay: cells; conditions: Homo sapiens, MDA-MB-231, 72 h
# Description: Antiproliferative activity against human MDA-MB-231 cells assessed as inhibition of cell growth incubated for 72 hrs by Hoechst stain-based assay
# [12] = Protection against rotenone-induced stress in human Induced pluripotent stem cell-derived neuron cells relative to control; type: functional
# [13] = biological target: 3',5'-cyclic-AMP phosphodiesterase 4D (Homo sapiens, UniProt Q08499); assay: Activation of PDE4D5 (unknown origin)
# [14] = biological target: Indoleamine 2,3-dioxygenase 1 (Homo sapiens, UniProt P14902); assay: Positive allosteric modulation of recombinant human IDOL transfected in mouse P1.HTR cells assessed as increase in Kyn production incubated for 24 hrs; type: cell-based
# [15] = biological target: Indoleamine 2,3-dioxygenase 1 (Mus musculus, UniProt P28776); assay: Positive allosteric modulation of recombinant mouse IDOL transfected in mouse P1.HTR cells assessed as increase in Kyn production incubated for 24 hrs; type: cell-based
# [16] = Activation of procaspase-3 (unknown origin); design: species or system Homo sapiens
# [17] = Activation of recombinant human procaspase-3 using Ac-DEVD-pNA as substrate preincubated for 12 hrs followed by substrate addition by absorbance based assay
# [18] = biological target: Insulin-degrading enzyme (Homo sapiens) (UniProt P14735); assay: Activation of IDE (unknown origin) using FRET1 as substrate at 200 uM by SpectraMax M5 multilabel plate reader analysis relative to control; conditions: filed as activator
# [19] = biological target: Insulin-degrading enzyme (Homo sapiens) (UniProt P14735); assay: Activation of IDE (unknown origin) using SP1 as substrate in presence of ATP by SpectraMax M5 multilabel plate reader analysis relative to control; conditions: filed as activator
# [20] = test system: MDA-MB-231; assay: Cytotoxicity against human MDA-MB-231 cells assessed as inhibition of cell growth incubated for 24 hrs by MTS assay; type: functional, cell-based; conditions: MDA-MB-231, 24 h
# [21] = test system: BT-474; assay: Cytotoxicity against human BT-474 cells assessed as inhibition of cell growth incubated for 24 hrs by MTS assay; type: functional, cell-based; conditions: BT-474, 24 h
# [22] = test system: NCI-H3255; assay: Cytotoxicity against TKI-sensitive LUAD immortalized human NCI-H3255 cells assessed as inhibition of cell growth incubated for 48 hrs by Beckman Coulter cell counter analysis; type: functional, cell-based; conditions: NCI-H3255, 48 h
# [23] = test system: HCC827; assay: Cytotoxicity against TKI-sensitive LUAD immortalized human HCC827 cells assessed as inhibition of cell growth incubated for 48 hrs by Beckman Coulter cell counter analysis; type: functional, cell-based; conditions: HCC827, 48 h
# [24] = test system: NCI-H1975; assay: Cytotoxicity against d TKI-resistant LUAD human NCI-H1975 cells assessed as inhibition of cell growth incubated for 48 hrs by Beckman Coulter cell counter analysis; type: functional, cell-based; conditions: NCI-H1975, 48 h
# [25] = test system: NCI-H1650; assay: Cytotoxicity against d TKI-resistant LUAD human NCI-H1650 cells assessed as inhibition of cell growth incubated for 48 hrs by Beckman Coulter cell counter analysis; type: functional, cell-based; conditions: NCI-H1650, 48 h
# [26] = test system: NCI-H1975; assay: Antitumor activity against human NCI-H1975 cells xenografted in mouse model assessed as fold decrease in tumor growth; type: functional
# [27] = biological target: T2, Glucose-6-phosphate 1-dehydrogenase (Homo sapiens, UniProt P11413); assay: Activation of G6PD (unknown origin) expressed in Escherichia coli C43(DE3) cells using G6P as substrate in presence of NADP+ by resazurin dye-based assay
# [28] = biological target: T2, Glucose-6-phosphate 1-dehydrogenase; assay: Activation of G6PD dimerization in lymphocytes isolated from G6PD-deficient patient carrying canton variant expressed in Escherichia coli C43(DE3) cells using G6P as substrate assessed as increase in lysate activity in presence of NADP+ by resazurin dye based fluorescence assay relative to control; type: subcellular; conditions: Lymphocyte, filed as activator
# [29] = biological target: Insulin-degrading enzyme (Homo sapiens) (UniProt P14735); assay: Activation of IDE (unknown origin) using FRET1 as substrate at 6.25 uM by SpectraMax M5 multilabel plate reader analysis relative to control; conditions: filed as activator
# Chain of Insulin-degrading enzyme (Homo sapiens) (P14735 whole entry): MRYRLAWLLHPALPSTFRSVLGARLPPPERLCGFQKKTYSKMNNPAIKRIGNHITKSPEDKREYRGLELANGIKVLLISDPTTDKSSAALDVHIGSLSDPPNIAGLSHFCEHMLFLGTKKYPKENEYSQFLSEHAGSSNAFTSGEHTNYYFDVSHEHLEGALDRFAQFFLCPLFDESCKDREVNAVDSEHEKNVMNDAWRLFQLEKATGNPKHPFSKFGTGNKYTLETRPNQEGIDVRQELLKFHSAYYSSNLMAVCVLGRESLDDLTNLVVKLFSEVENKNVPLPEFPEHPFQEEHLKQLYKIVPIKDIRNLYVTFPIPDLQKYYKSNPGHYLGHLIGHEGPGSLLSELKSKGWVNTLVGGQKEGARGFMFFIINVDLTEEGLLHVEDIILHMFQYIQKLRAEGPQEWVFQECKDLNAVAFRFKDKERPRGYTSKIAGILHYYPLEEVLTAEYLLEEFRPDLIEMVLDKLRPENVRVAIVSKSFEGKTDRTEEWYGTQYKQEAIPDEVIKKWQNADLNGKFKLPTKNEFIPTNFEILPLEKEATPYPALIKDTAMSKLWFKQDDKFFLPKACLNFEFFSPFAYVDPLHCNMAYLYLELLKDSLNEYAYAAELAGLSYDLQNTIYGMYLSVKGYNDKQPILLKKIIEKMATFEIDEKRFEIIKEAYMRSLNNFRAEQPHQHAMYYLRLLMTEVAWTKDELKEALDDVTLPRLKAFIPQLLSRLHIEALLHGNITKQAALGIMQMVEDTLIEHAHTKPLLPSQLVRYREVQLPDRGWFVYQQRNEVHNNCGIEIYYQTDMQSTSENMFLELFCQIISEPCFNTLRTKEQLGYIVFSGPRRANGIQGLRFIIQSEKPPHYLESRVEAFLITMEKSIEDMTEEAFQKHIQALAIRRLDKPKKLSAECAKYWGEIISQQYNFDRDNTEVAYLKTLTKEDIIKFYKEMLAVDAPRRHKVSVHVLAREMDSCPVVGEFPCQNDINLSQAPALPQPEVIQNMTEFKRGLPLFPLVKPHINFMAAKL
# Chain of N-glycosylase/DNA lyase (O15527 whole entry): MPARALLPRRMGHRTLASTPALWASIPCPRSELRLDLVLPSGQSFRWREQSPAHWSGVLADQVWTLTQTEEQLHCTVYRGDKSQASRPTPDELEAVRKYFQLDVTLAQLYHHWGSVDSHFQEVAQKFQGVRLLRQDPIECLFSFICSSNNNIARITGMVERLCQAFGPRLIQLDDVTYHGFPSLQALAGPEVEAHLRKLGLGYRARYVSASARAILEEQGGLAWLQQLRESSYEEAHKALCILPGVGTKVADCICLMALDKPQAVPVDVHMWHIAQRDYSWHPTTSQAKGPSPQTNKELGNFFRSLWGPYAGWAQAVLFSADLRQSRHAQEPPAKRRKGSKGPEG
# Chain of Angiotensin-converting enzyme 2 (Q9BYF1 whole entry): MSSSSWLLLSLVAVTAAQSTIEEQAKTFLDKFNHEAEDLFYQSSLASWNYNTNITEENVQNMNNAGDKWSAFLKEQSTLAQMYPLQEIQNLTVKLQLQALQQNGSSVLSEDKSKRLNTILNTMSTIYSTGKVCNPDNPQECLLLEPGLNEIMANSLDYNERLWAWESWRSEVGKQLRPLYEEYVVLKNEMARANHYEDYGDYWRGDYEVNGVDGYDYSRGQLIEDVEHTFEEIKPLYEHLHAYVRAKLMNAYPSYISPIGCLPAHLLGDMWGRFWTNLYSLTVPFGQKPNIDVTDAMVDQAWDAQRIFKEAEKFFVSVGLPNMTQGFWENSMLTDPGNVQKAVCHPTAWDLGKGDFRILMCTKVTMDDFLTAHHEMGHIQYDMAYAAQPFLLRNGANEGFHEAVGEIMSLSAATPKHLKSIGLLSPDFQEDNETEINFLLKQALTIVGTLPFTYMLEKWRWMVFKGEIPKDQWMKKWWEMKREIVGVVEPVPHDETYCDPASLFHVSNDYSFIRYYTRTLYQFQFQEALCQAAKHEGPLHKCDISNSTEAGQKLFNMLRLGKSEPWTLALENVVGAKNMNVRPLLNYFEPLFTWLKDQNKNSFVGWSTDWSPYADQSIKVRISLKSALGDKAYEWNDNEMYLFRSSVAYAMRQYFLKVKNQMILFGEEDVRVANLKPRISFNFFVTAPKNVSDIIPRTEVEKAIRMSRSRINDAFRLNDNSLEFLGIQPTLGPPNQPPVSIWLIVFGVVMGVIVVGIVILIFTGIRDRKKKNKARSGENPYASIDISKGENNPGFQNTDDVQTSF
# T2 sequence (P11413 whole entry): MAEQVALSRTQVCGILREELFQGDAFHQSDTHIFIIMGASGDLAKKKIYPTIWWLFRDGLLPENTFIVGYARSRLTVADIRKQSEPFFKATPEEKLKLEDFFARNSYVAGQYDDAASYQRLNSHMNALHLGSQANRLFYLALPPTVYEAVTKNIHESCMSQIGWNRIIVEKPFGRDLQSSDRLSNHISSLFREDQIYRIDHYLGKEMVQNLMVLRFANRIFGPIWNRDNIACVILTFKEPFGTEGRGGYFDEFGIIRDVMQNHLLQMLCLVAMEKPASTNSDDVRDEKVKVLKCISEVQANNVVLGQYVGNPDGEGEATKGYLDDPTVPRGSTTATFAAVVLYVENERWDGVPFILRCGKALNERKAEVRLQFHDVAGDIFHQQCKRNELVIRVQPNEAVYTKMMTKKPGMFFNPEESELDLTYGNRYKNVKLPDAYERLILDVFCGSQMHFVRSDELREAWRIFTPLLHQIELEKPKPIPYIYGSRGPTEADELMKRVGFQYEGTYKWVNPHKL
# Chain of Indoleamine 2,3-dioxygenase 1 (Mus musculus, UniProt P28776) (P28776 whole entry): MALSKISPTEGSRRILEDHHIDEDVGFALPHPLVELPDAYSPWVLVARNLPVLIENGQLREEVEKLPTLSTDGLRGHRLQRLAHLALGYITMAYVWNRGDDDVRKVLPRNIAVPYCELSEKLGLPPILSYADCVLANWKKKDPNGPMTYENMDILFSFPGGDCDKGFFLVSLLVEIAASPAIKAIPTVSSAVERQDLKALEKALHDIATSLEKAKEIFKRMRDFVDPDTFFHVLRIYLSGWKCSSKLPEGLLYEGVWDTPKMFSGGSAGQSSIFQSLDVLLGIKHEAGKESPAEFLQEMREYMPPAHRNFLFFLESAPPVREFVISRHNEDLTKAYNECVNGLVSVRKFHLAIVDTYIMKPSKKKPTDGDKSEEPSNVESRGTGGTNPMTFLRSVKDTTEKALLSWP
# Chain of Indoleamine 2,3-dioxygenase 1 (Homo sapiens, UniProt P14902) (P14902 whole entry): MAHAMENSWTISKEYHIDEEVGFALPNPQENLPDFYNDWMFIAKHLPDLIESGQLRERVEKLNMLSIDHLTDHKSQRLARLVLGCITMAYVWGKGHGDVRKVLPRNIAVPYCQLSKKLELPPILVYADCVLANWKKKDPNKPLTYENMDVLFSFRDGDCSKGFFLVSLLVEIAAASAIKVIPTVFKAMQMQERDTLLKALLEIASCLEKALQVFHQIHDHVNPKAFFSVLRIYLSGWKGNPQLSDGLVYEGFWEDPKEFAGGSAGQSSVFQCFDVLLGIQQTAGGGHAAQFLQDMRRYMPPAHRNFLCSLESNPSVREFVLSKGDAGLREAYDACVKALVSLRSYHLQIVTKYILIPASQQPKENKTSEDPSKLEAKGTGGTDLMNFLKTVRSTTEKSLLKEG
# Chain of 3',5'-cyclic-AMP phosphodiesterase 4D (Q08499 whole entry): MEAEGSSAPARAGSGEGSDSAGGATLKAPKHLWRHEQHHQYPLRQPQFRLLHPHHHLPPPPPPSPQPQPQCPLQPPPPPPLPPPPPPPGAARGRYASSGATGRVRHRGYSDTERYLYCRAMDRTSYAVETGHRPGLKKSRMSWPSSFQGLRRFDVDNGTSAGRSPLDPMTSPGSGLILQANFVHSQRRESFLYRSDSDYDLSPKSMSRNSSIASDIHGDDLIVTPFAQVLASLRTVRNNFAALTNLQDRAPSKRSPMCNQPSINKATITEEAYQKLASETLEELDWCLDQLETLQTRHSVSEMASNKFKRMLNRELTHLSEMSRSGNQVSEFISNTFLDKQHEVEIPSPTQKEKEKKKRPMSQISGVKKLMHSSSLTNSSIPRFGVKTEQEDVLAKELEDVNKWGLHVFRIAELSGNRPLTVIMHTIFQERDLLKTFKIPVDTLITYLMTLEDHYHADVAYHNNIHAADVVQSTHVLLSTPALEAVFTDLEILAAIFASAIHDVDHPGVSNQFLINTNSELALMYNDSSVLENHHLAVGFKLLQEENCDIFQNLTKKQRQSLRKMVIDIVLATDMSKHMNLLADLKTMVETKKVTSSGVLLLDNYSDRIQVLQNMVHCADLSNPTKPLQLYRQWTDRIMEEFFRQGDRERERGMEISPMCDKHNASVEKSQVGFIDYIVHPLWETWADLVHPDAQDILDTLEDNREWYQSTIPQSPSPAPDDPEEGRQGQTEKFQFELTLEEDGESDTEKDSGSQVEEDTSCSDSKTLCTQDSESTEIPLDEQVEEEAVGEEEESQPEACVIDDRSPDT
structure (smiles),measurement,setting,value
OC(Cn1ccnc1)(c1ccc(Cl)cc1Cl)C1CCCCC1 (stereo unspecified),EC50,[1],5 µM
same,Activity,[2],650%
COC(=O)N(C)c1c(N)nc(-c2nn(Cc3ccccc3F)c3ncccc23)nc1N,fold change (FC),[3],< 73
O=C1OC2(c3ccc(O)cc3Oc3cc(O)ccc32)c2ccccc21 [FLUORESCEIN],EC50,[4],19.5 µM
Fc1ccccc1Cc1nc(-c2nc(C(F)(F)F)n[nH]2)cn2ccnc12 [ZAGOCIGUAT],EC50,[5],0.066 µM
O=C(O)[C@H]1O[C@@H](Oc2cc3oc(-c4ccccc4)cc(=O)c3c(O)c2O)[C@H](O)[C@@H](O)[C@@H]1O [BAICALIN],fold change (FC),[6],7
same,Activity,[7],50%
same,Activity,[8],-12.5 g
same,Activity,[9],-0.085%
c1ccc2c(NC3CCCCC3)nc(C3CC3)nc2c1,EC50,[1],0.78 µM
N#Cc1cccc(CN2CCc3ncn(Cc4ccc(Cl)cc4)c(=O)c3C2)c1,IC50,[10],0.012 µM
same,IC50,[11],0.003 µM
O=C(c1cc(O)c(O)c(O)c1)c1ccc(O)c(O)c1O [EXIFONE],Activity,[12],80%
N=C(N)c1ccc(/N=N/Nc2ccc(C(=N)N)cc2)cc1 [DIMINAZENE],EC50,[4],8.04 µM
CCc1nc(-c2ccc(Cl)c(F)c2)nn1CC(=O)NCc1cc(Cl)cc(Cl)c1,EC50,[13],1.2 µM
CC(=O)NCCc1c[nH]c2ccc(O)cc12 [ACETYLSEROTONIN],EC50,[14],20.9 µM
same,EC50,[15],19.6 µM
O=C(Nc1cccc(-c2cn3ccccc3n2)c1)c1cc2cccc(O)c2oc1=O,EC50,[16],1.3 µM
CNc1nnc(C)c2c1cc(-c1ccc(F)cc1)n2C,EC50,[1],5.1 µM
same,Activity,[2],200%
O=C(Nc1ccc(S(=O)(=O)N2CCOCC2)cc1)c1cc(Cl)ccc1NS(=O)(=O)c1ccc(Cl)s1,EC50,[5],0.5 µM
O=C(CN1CCN(Cc2nc(-c3ccc(COc4ccc(F)cc4)cc3)no2)CC1)N/N=C/c1ccc(OCc2csc(Cc3ccc4c(c3)OCO4)n2)cc1O,EC50,[17],0.95 µM
O=C1CC(c2ccc(Cl)cc2)CC(=O)C1/C=N/OCc1nnsc1Cl (stereo unspecified),Activity,[18],500%
same,Activity,[19],1000%
CCCCCCCCc1ccc(CCC(N)(CO)CO)cc1 [FINGOLIMOD],IC50,[20],2.9 µM
same,IC50,[21],8.5 µM
Cc1cnc(N2CCN3CCCC3C2)nc1Oc1ccc(-n2ccnc2)cc1 (stereo unspecified),EC50,[1],4.6 µM
Cc1cc(N[C@@H](C)C(=O)Nc2ccccc2)nc(Nc2ccccc2)n1,EC50,[1],4.1 µM
O=S(=O)(N[C@@H]1CCCC(N2c3ccccc3Oc3ccccc32)[C@H]1O)c1ccc(OC(F)(F)F)cc1 (stereo partly specified),IC50,[22],12.4 µM
same,IC50,[23],14.3 µM
same,IC50,[24],10.6 µM
same,IC50,[25],10.6 µM
same,fold change (FC),[26],2
c1ccc2c(CCNCCSSCCNCCc3c[nH]c4ccccc34)c[nH]c2c1,EC50,[27],0.8 µM
same,Activity,[28],78%
O=C(Nc1cccc(Cl)c1)N1CCC(c2cc(-c3ccco3)[nH]n2)CC1,Activity,[29],60%
